Here are results for one molecule from patent publication US12054509B2, “Antimicrobial compounds, compositions, and uses thereof” (Lakewood Amedex, Inc., priority 2017, dated 2024).

In the assay the test system is Escherichia coli (strain CFT073, TPPS 1041). Briefly: Urinary tract infection model in BALB/c mice, initial efficacy (Example 10). The settings on record: 1025 mg/kg pH 3.5 transurethral at 24 hr. In kind it is in vivo. An excerpt: Female BALB/c mice (20-22 g) ordered from Envigo are acclimated to housing conditions and handled in accordance with Animal Use Protocol (AUP) number TP-08. Animals are fed irradiated Teklad Global 29 18 Rodent Diet and water ad libitum. Mice are housed 6/cage in static cages with irradiated ⅛″ Teklad corn cobbedding 7902 inside bioBubble® clean rooms that provide H.E.P.A filtered air into the bubble environment at 100 complete air changes per hour. The environment is controlled to a temperature range of 74°±4° F. and a humidity range of 30-70%. All procedures carried out in this experiment are conducted in compliance with the laws, regulations, and guidelines of the National Institutes of Health and with the approval of the TransPharm Preclinical Solutions Animal Care and Use Committee.
A clinical isolate of Escherichia coli (strain CFT073, TPPS 1041) are procured from the University of Michigan.
The organism is grown overnight at 37° C. in ambient atmosphere on trypticase soy agar plates supplemented with 5% sheep blood cells. The culture is aseptically swabbed and transferred to tubes of trypticase soy broth. The optical density is determined at 600 nm. The culture is diluted to provide an inoculum of approximately 7.5 log10 CFU per mouse in a volume of 30 μL. Instillation of the bacterial challenge constituted time 0 hour for the study. Inoculum counts are estimated before inoculation by optical density and confirmed after inoculation by dilution and back counts.
One hour prior to bacterial challenge, water is removed from animal cages. […]
The primary endpoint used to assess progress of the infection is mean bacterial burden per gram of urinary bladder tissue. […] Colony forming units (CFU) are enumerated and the total bacterial burden per gram of urinary bladder tissue homogenate is calculated.
The geometric mean CFU, along with standard error of the mean (SEM), are calculated using Microsoft Excel and bar charts are prepared for the data using GraphPad Prism v. […]

On to `CCCCOP(=O)(O)OC[C@H]1O[C@@H](n2ccc(N)nc2=O)C[C@@H]1OP(=O)(O)OCCCC` [Nu-8, sodium ((2R,3S,5R)-5-(4-amino-2-oxopyrimidin-1(2H)-yl)-3-((butoxyoxidophosphor-yl)oxy)tetrahydrofuran-2-yl)methyl butyl phosphate], for which the “mean bladder CFU burden” value (20 minutes post-treatment) came to 2.9 log10 CFU and the “mean bladder CFU burden” value (60 minutes post-treatment) is 3.7 log10 CFU.
